Assay results reported in patent US5145783A, “Glyphosate-tolerant 5-endolpyruvyl-3-phosphoshikimate synthase” (Monsanto Company, priority 1990, dated 1992).

Experiments:
[1] = target: T1, wild-type EPSP synthase of tomato (Solanum lycopersicum, UniProt P10748); experiment: EPSP synthase activity assay, extracts of E. coli SR481 harboring pMON9719; assay type: biochemical
T1 construct: ATG translational initiation codon at the site predicted to be the start of the mature enzyme for in vitro expression in E. Coli; initiator methionine (ATG in an engineered NcoI site) (N); made in house; host or cells: E. coli SR481 (aroA mutant) harboring pMON9719, desalted cell extract
Procedure: E. coli SR481 cells harboring pMON9719 or pMON9729 were grown under conditions which induce the expression of the RecA promoter. The cells were lysed and the extracts were assayed for EPSP synthase activity.
Specifically, the bacterial cell paste was washed twice with 0.9% saline, suspended in buffer (100 mM Tris-HCl, 5 mM dithiothreitol, 1 mM EDTA, 10% glycerol and 1 mM benzamidine HCl) passed twice through the French Pressure Cell at 1000 psi. The cell abstract was separated from the cells by centrifuging at 15,000×gravity for 10 mins. at 5° C. It was desalted using Sephadex G-50 (Pharmacia, Piscataway, N.J.). The desalted extract was assayed for EPSP synthase activity as follows:
To an assay mix (40 μl) containing shikimate-3-phosphate (2 mM), ^14 C-phosphoenolpyruvate (1 mM, 1.2 mCi/mmol), ammonium molybdate (0.1 mM), potassium fluoride (5 mM), in 50 mM HEPES-KOH, pH 7, was added 10 μl of the extract and incubated at 25° C. for 2 mins. […] The radioactivity of the eluent was monitored using a Radiometric Flo-One Beta Instrument. […] The EPSP synthase activity was determined by measurement of the conversion of ^14 C-PEP to ^14 […], both of which are resolved under the above conditions of chromatography. The protein content of the extract was determined by the method of Bradford (Biorad Labs, Calif.). […]

[2] = system: control petunia leaf disks (pMON505); experiment: Callus growth of petunia leaf disks on glyphosate media, control vector pMON505; assay type: cell-based
Procedure: Leaf disks with diameters of 6 mm (1/4 inch) were taken from surface-sterilized petunia leaves. They were cultivated on MS104 agar medium for 2 days to promote partial cell wall formation at the wound surfaces. They were then submerged in a culture of A. tumefaciens cells containing both pMON546 and GV3111-SE which had been grown overnight in Luria broth at 28° C., and shaken gently. The cells were removed from the bacterial suspension, blotted dry, and incubated upside down on filter paper placed over "nurse" cultures of tobacco cells, as described in Horsch (1980). After 2 or 3 days, the disks were transferred to petri dishes containing MS media with 500 μg/ml carbenicillin and 0., 0.1, 0.25, or 0.5 mM glyphosate (sodium salt), with no nurse cultures.
Control tissue was created using A. tumefaciens cells containing the helper plasmid pGV3111-SE and a different plant transformation vector, pMON505, which contained a T-DNA region with a NOS/NPTII/NOS kanamycin resistance gene and a NOS selectable marker gene identical to pMON546, but without the CaMV35S/EPSP synthase gene.
Within 10 days after transfer to the media containing glyphosate, actively growing callus tissue appeared on the periphery of all disks on the control plate containing no glyphosate. […] This confirms that the CaMV35S/EPSP synthase gene conferred glyphosate resistance upon the transformed cells.

[3] = system: Brassica napus calli transformed with pMON600; experiment: Growth of pMON600-transformed calli on glyphosate; assay type: cell-based; conditions: 0.5 mM glyphosate, three gentamicin resistant calli
E coli 11303 SM-1 = experiment: Growth of mutant E. coli in medium containing glyphosate; assay type: cell-based; conditions: 10 mM or higher glyphosate in the growth medium
Procedure: Cells of E. coli ATCC 11303 were transferred to medium A and incubated at 37° C.
This mutant bacterium was designated E coli 11303 SM-1. The AroA gene encoding EPSP synthase from this mutant bacterium was isolated as follows.

T1 sequence (P10748 77-520): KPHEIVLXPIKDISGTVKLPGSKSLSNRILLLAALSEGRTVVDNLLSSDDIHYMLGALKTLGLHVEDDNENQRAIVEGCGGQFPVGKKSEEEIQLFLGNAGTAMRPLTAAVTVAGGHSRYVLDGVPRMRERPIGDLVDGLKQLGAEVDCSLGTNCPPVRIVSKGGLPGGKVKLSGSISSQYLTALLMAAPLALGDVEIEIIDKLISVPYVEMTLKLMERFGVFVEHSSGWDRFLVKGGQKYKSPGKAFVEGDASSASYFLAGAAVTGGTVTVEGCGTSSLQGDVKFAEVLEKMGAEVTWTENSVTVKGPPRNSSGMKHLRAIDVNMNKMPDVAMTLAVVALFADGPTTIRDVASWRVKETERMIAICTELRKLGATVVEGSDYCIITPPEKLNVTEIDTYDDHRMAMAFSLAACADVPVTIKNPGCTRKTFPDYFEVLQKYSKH

O=C(O)CNCP(=O)(O)O [glyphosate, N-phosphonomethylglycine]
IC50 [1]: 12 µM
callus growth ([2]; 0.25 mM glyphosate): very little growth of callus
callus growth ([2]; 0.5 mM glyphosate): no callus growth
callus growth on glyphosate [3]: capable of growth
growth in the presence of glyphosate (E coli 11303 SM-1): could grow rapidly
